# Experimental data taken from ChEMBL document CHEMBL4368855, “Novel tricyclic glycal-based TRIB1 inducers that reprogram LDL metabolism in hepatic cells” (Medchemcomm, 2018).
# Active and inactive are the calls of the source. The calls are words filed in the database; no cut-off is given here.
# Experiments:
# [1] = Tmax in C57BL/6 mouse plasma at 10 mg/kg, ip administered as single dose by mass spectrometry; assay type: ADME, organism-based
# HepG2 [2] = assay: Down regulation of PCSK9 gene expression in human HepG2 cells measured after 24 hrs by qRT-PCR analysis; assay type: functional, cell-based; settings: HepG2, 24 h
# HepG2 [3] = assay: Up regulation of LDLR gene expression in human HepG2 cells measured after 6 hrs by qRT-PCR analysis; assay type: functional, cell-based; settings: HepG2, 6 h
# [4] = Unbound fraction in C57BL/6 mouse liver at 10 mg/kg, ip administered as single dose by mass spectrometry; assay type: ADME, organism-based
# HepG2 [5] = assay: Up regulation of LDLR gene expression in human HepG2 cells measured after 6 hrs by qRT-PCR analysis relative to control; assay type: functional
# [6] = AUC (infinity) in C57BL/6 mouse liver at 10 mg/kg, ip administered as single dose by mass spectrometry; assay type: ADME, organism-based; set-up: dose 10 mg/kg, route intraperitoneal, time infinity; settings: in vivo
# [7] = Cmax in C57BL/6 mouse liver at 10 mg/kg, ip administered as single dose by mass spectrometry; assay type: ADME, organism-based; set-up: dose 10 mg/kg, route intraperitoneal
# [8] = Apparent volume of distribution in C57BL/6 mouse liver at 10 mg/kg, ip administered as single dose by mass spectrometry; assay type: ADME, organism-based; settings: in vivo
# [9] = Half life in C57BL/6 mouse plasma at 10 mg/kg, ip administered as single dose by mass spectrometry; assay type: ADME, organism-based
# [10] = Cmax in C57BL/6 mouse plasma at 10 mg/kg, ip administered as single dose by mass spectrometry; assay type: ADME, organism-based; set-up: dose 10 mg/kg, route intraperitoneal
# HepG2 [11] = assay: Up regulation of TRIB1 gene expression in human HepG2 cells measured after 6 hrs by qRT-PCR analysis; assay type: functional, cell-based; settings: HepG2, 6 h
# [12] = Tmax in C57BL/6 mouse liver at 10 mg/kg, ip administered as single dose by mass spectrometry; assay type: ADME, organism-based
# [13] = AUC (infinity) in C57BL/6 mouse plasma at 10 mg/kg, ip administered as single dose by mass spectrometry; assay type: ADME, organism-based; set-up: dose 10 mg/kg, route intraperitoneal, time infinity; settings: in vivo
# [14] = Stability in mouse liver microsomes assessed as parent compound remaining at 1 uM incubated for 60 mins under shaking condition by UPLC/MS analysis; assay type: ADME, Microsome; settings: read-out: Stability
# [15] = Solubility of the compound in 1% DMSO/phosphate buffered saline at pH 7.4 incubated for 18 hrs under shaking condition by UPLC/MS analysis; assay type: physicochemical
# [16] = Clearance in C57BL/6 mouse plasma at 10 mg/kg, ip administered as single dose by mass spectrometry; assay type: ADME, organism-based
# [17] = Half life in C57BL/6 mouse liver at 10 mg/kg, ip administered as single dose by mass spectrometry; assay type: ADME, organism-based
# [18] = Apparent volume of distribution in C57BL/6 mouse plasma at 10 mg/kg, ip administered as single dose by mass spectrometry; assay type: ADME, organism-based; settings: in vivo
# HepG2 [19] = assay: Up regulation of TRIB1 gene expression in human HepG2 cells measured after 6 hrs by qRT-PCR analysis relative to control; assay type: functional
# HepG2 [20] = assay: Up regulation of LDLR expression in human HepG2 cells at 1 uM measured after 6 to 24 hrs by transcriptional profiling analysis; assay type: functional, cell-based
# HepG2 [21] = assay: Up regulation of FOS expression in human HepG2 cells at 1 uM measured after 6 hrs by transcriptional profiling analysis; assay type: functional, cell-based
# HepG2 [22] = assay: Up regulation of TRIB1 expression in human HepG2 cells at 1 uM measured after 6 to 24 hrs by transcriptional profiling analysis; assay type: functional, cell-based
# HepG2 [23] = assay: Up regulation of PCSK9 gene expression in human HepG2 cells at 2 uM after 24 hrs in presence of atorvastatin by qRT-PCR analysis; assay type: functional, cell-based
# HepG2 [24] = assay: Induction of TRIB1 expression in human HepG2 cells assessed as reduction in 13[C3]-D5-glycerol incorporation into C48:2 triglyceride at 2 uM preincubated for 24 hrs followed by 13[C3]-D5-glycerol addition and measured by LC/MS analysis; assay type: functional, cell-based
# HepG2 [25] = assay: Down regulation of APOC3 gene expression in human HepG2 cells at 1 uM measured after 24 hrs by transcriptional profiling analysis; assay type: functional, cell-based
# HepG2 [26] = assay: Down regulation of MTTP gene expression in human HepG2 cells at 1 uM measured after 24 hrs by transcriptional profiling analysis; assay type: functional, cell-based
# HepG2 [27] = assay: Effect on SREBF1 expression in human HepG2 cells at 1 uM measured after 6 to 24 hrs by transcriptional profiling analysis; assay type: functional, cell-based
# HepG2 [28] = assay: Down regulation of HMGCR gene expression in human HepG2 cells at 1 uM measured after 24 hrs by transcriptional profiling analysis; assay type: functional, cell-based
# HepG2 [29] = assay: Down regulation of DGAT1 gene expression in human HepG2 cells at 1 uM measured after 24 hrs by transcriptional profiling analysis; assay type: functional, cell-based
# HepG2 [30] = assay: Up regulation of LDLR expression in human HepG2 cells after 24 hrs by ELISA; assay type: functional, cell-based
# HepG2 [31] = assay: Up regulation of LDLR expression in human HepG2 cells at 10 uM measured after 6 hrs in presence of JAK inhibitor CP-690550 by qRT-PCR analysis; assay type: functional, cell-based
# HepG2 [32] = assay: Effect on SREBF2 expression in human HepG2 cells at 1 uM measured after 6 to 24 hrs by transcriptional profiling analysis; assay type: functional, cell-based
# HepG2 [33] = assay: Up regulation of LDLR gene expression in human HepG2 cells at 2 uM after 6 hrs in presence of simvastatin by qRT-PCR analysis; assay type: functional, cell-based
# HepG2 [34] = assay: Up regulation of JUN expression in human HepG2 cells at 1 uM measured after 6 hrs by transcriptional profiling analysis; assay type: functional, cell-based
# HepG2 [35] = assay: Up regulation of EGR1 expression in human HepG2 cells at 1 uM measured after 6 hrs by transcriptional profiling analysis; assay type: functional, cell-based
# HepG2 [36] = assay: Up regulation of ATF3 expression in human HepG2 cells at 1 uM measured after 6 hrs by transcriptional profiling analysis; assay type: functional, cell-based
# HepG2 [37] = assay: Up regulation of LDLR expression in human HepG2 cells at 10 uM measured after 6 hrs in presence of MEK inhibitor U0126 by qRT-PCR analysis; assay type: functional, cell-based
# HepG2 [38] = assay: Down regulation of MOGAT2 gene expression in human HepG2 cells at 1 uM measured after 24 hrs by transcriptional profiling analysis; assay type: functional, cell-based
# [39] = target: T1, Mitogen-activated protein kinase; ERK1/ERK2 (Homo sapiens) (UniProt P27361+P28482); assay: Activation of ERK1/2 phosphorylation in human HepG2 cells assessed as ratio of phosphorylated ERK1/2 to total ERK1/2 at 2 uM after 30 mins by Western blot analysis relative to control; assay type: cell-based
# T1 sequence (P27361 whole entry, looked up): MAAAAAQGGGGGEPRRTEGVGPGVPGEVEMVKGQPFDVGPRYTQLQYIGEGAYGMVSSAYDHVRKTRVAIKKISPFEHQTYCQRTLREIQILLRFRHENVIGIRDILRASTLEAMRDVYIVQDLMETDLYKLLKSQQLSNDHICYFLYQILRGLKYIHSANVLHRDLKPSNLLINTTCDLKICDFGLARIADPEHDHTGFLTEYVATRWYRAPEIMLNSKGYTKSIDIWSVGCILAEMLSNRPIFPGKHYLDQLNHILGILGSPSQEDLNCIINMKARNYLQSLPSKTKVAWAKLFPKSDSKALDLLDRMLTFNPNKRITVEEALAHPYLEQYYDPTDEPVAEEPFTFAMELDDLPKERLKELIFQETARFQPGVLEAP
# T1 sequence (P28482 whole entry, looked up): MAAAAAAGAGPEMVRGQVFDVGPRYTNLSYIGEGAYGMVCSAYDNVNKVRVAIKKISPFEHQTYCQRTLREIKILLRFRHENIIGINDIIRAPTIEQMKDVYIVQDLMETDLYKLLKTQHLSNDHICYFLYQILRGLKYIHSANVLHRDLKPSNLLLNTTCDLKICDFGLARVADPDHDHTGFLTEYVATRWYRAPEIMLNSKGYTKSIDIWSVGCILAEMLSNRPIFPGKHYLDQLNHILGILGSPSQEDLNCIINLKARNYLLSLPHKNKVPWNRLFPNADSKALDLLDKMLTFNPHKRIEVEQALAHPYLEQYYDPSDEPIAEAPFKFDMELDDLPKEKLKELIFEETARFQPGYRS
# HepG2 [40] = assay: Up regulation of LDLR gene expression in human HepG2 cells cultured in cholesterol depleted media at 2.5 uM after 6 hrs by qRT-PCR analysis; assay type: functional, cell-based
# HepG2 [41] = assay: Down regulation of ACAT2 gene expression in human HepG2 cells at 1 uM measured after 24 hrs by transcriptional profiling analysis; assay type: functional, cell-based
# HepG2 [42] = assay: Up regulation of JUNB expression in human HepG2 cells at 1 uM measured after 6 hrs by transcriptional profiling analysis; assay type: functional, cell-based
# HepG2 [43] = assay: Up regulation of DUSP1 expression in human HepG2 cells at 1 uM measured after 6 hrs by transcriptional profiling analysis; assay type: functional, cell-based
# HepG2 [44] = assay: Down regulation of LSS gene expression in human HepG2 cells at 1 uM measured after 24 hrs by transcriptional profiling analysis; assay type: functional, cell-based
# HepG2 [45] = assay: Up regulation of ZFP36 expression in human HepG2 cells at 1 uM measured after 6 hrs by transcriptional profiling analysis; assay type: functional, cell-based
# HepG2 [46] = assay: Induction of TRIB1 expression in human HepG2 cells assessed as reduction in 13[C3]-D5-glycerol incorporation into C50:2 triglyceride at 2 uM preincubated for 24 hrs followed by 13[C3]-D5-glycerol addition and measured by LC/MS analysis; assay type: functional, cell-based
# HepG2 [47] = assay: Down regulation of MVK gene expression in human HepG2 cells at 1 uM measured after 24 hrs by transcriptional profiling analysis; assay type: functional, cell-based
# HepG2 [48] = assay: Down regulation of PCSK9 gene expression in human HepG2 cells cultured in cholesterol depleted media at 2.5 uM after 24 hrs by qRT-PCR analysis; assay type: functional, cell-based
# HepG2 [49] = assay: Induction of LDL uptake in human HepG2 cells preincubated for 20 hrs followed by BODIPY-FL-LDL addition and measured after 5 hrs by Hoechst 33342 staining based microscopic analysis; assay type: functional, cell-based
# [50] = target: T1, Mitogen-activated protein kinase; ERK1/ERK2 (Homo sapiens); assay: Activation of ERK1/2 phosphorylation in human HepG2 cells assessed as ratio of phosphorylated ERK1/2 to total ERK1/2 at 2 uM after 6 hrs by Western blot analysis relative to control; assay type: cell-based
# HepG2 [51] = assay: Induction of TRIB1 expression in human HepG2 cells measured after overnight incubation by qRT-PCR analysis; assay type: functional, cell-based
# HepG2 [52] = assay: Down regulation of PCSK9 expression in human HepG2 cells after 24 hrs by ELISA; assay type: functional, cell-based
# HepG2 [53] = assay: Induction of TRIB1 expression in human HepG2 cells assessed as increase in ApoB secretion measured after 24 hrs by ELISA; assay type: functional, cell-based
# HepG2 [54] = assay: Down regulation of HMGCS1 gene expression in human HepG2 cells at 1 uM measured after 24 hrs by transcriptional profiling analysis; assay type: functional, cell-based
# HepG2 [55] = assay: Induction of LDLR expression in human HepG2 cells by luminex assay; assay type: functional, cell-based
# HepG2 [56] = assay: Inhibition of PCSK9 secretion in human HepG2 cells by luminex assay; assay type: functional, cell-based
smiles,measurement,setting,value
CN1C(=O)c2cc(NC(=O)c3ccc(C(F)(F)F)cc3)ccc2OC[C@@H]2O[C@H](CNc3nnc(C4CCC4)o3)CC[C@@H]21,Tmax,[1],1 h
same,EC50,HepG2 [2],95 nM
same,EC50,HepG2 [3],1450 nM
same,fraction unbound,[4],0.02
same,max activation,HepG2 [5],3.8
same,AUC,[6],35928 µg/L/h
same,Cmax,[7],13800 ng/mL
same,Vz,[8],0.72 L/kg
same,half-life,[9],1.46 h
same,Cmax,[10],3050 ng/mL
same,EC50,HepG2 [11],320 nM
same,Tmax,[12],1 h
same,AUC,[13],6464 µg/L/h
same,"remaining at 1 h, 1 µM",[14],18%
same,solubility kinetic at 18 h,[15],27.5 µM
same,CL/F,[16],25.8 mL/min/kg
same,half-life,[17],1.78 h
same,Vz,[18],3.25 L/kg
same,max activation,HepG2 [19],4.6
CN1C(=O)c2cc(NC(=O)c3ccc(C(F)(F)F)cc3)ccc2OC[C@@H]2O[C@H](CC(=O)NC3Cc4ccccc4C3)CC[C@@H]21,Activity,HepG2 [20],Active
same,Tmax,[1],1 h
same,EC50,HepG2 [2],240 nM
same,Activity,HepG2 [21],Active
same,EC50,HepG2 [3],490 nM
same,fraction unbound,[4],0.01
same,Activity,HepG2 [22],Active
same,max activation,HepG2 [5],4.8
same,AUC,[6],11558 µg/L/h
same,Activity,HepG2 [23],inactive
same,Activity,HepG2 [24],Active
same,Activity,HepG2 [25],Active
same,Cmax,[7],4660 ng/mL
same,Vz,[8],2.81 L/kg
same,half-life,[9],1.63 h
same,Cmax,[10],437 ng/mL
same,EC50,HepG2 [11],430 nM
same,Tmax,[12],0.08 h
same,AUC,[13],1010 µg/L/h
same,Activity,HepG2 [26],Active
same,Activity,HepG2 [27],inactive
same,Activity,HepG2 [28],Active
same,Activity,HepG2 [29],Active
same,"remaining at 1 h, 1 µM",[14],0%
same,Activity,HepG2 [30],Active
same,Activity,HepG2 [31],Active
same,Activity,HepG2 [32],inactive
same,Activity,HepG2 [33],Active
same,Activity,HepG2 [34],Active
same,Activity,HepG2 [35],Active
same,Activity,HepG2 [36],Active
same,Activity,HepG2 [37],inactive
same,Activity,HepG2 [38],Active
same,fold change (FC),[39],2
same,Activity,HepG2 [40],Active
same,Activity,HepG2 [41],Active
same,Activity,HepG2 [42],Active
same,Activity,HepG2 [43],Active
same,Activity,HepG2 [44],Active
same,Activity,HepG2 [45],Active
same,Activity,HepG2 [46],Active
same,Activity,HepG2 [47],Active
same,Activity,HepG2 [48],Active
same,CL/F,[16],165 mL/min/kg
same,half-life,[17],2.25 h
same,Vz,[18],23.3 L/kg
same,Activity,HepG2 [49],Active
same,max activation,HepG2 [19],4.7
same,fold change (FC),[50],2
same,EC50,HepG2 [51],230 nM
same,Activity,HepG2 [52],Active
same,Activity,HepG2 [53],Active
same,Activity,HepG2 [54],Active
CN1C(=O)c2cc(NC(=O)c3ccc(C(F)(F)F)cc3)ccc2OC[C@@H]2O[C@@H](CC(=O)NC3Cc4ccccc4C3)CC[C@@H]21,Activity,HepG2 [55],Active
same,Activity,HepG2 [30],Active
same,inhibition,HepG2 [56],Active
same,Activity,HepG2 [49],Active
same,EC50,HepG2 [51],2030 nM
same,Activity,HepG2 [52],Active
